# Assay results reported in patent US11446516B2, “Methods of increasing response to cancer radiation therapy” (THE TRUSTEES OF THE UNIVERSITY OF PENNSYLVANIA, priority 2013, dated 2022).
# “Also recorded” adds a separate entry of the source. Where two headings read alike, the source gives them in different places. Where a SMILES comes first, the peptide text is derived from it. The star is where a group is joined. Cbz = O=C(OCc1ccccc1)*
# B1: IFN-γ: recombinant interferon-gamma (SEQ ID NO: 5) (protein)
# chain: QDPYVKEAENLKKYFNAGHSDVADNGTLFLGILKNWKEESDRKIMQSQIVSFYFKLFKNFKDDQSIQKSVETIKEDMNVKFFNSNKKKRDDFEKLTNYSVTDLNVQRKAIHELIQVMAELSPAAKTGKRKRSQ
# modifications: IFN-gamma
# Legend:
# BT-474 cells = test: MTT cell viability assay, BT-474; assay type: cell-based; conditions: FIG. 43, FIG. 48
# [1] = tested on: Akt, MAPK, GSK3-β, snail, slug, KLF4 in SK-BR-3 cells; test: Western blot of erbB downstream signaling and Snail/Slug, SK-BR-3; assay type: cell-based, human
# [2] = tested on: Akt, MAPK, snail in MDA-MB-453 cells; test: Western blot of signaling and snail, MDA-MB-453; assay type: cell-based; conditions: 24 hours (FIG. 20B)
# H2N113 tumors = assay type: in vivo
# MDA-MB-231 cells = test: MTT cell viability assay, MDA-MB-231; assay type: cell-based; conditions: FIG. 43 / FIG. 55C
# PD-L1 = PD-L1 expression in treated tumors; assay type: in vivo, mouse; conditions: FIG. 60A
# Procedure: FIG. 60A-FIG. 60C. PD-L1 expression is increased in tumors treated with IFN-γ. FIG. 60A—Western blotting was performed with anti-PD-L1 antibody with the tumors from each indicated group of mice after treatment in the same way as FIG. 59A. FIG. 60B—FACS analysis of PD-L1 expression in tumor cells from control IgG and 7.16.4+IFN-γ treated mice. Tumor cells are gated as CD45-large size cells which we confirmed most of them are tumor cells by 7.16.4 antibody. **P<0.02. FIG. 60C—Administration of anti-PD-L1 antibody with the ordered therapy. Mice were treated with control PBS, 7.16.4 (1.5 mg/kg, three times per week) and anti-PDL1 (5 mg/kg, twice per week), 7.16.4 and IFN-γ ([…], three times per week), or the combination of IFN-γ, 7.16.4 and anti-PD-L1. Data represent mean+SEM.
# This is also consistent with why IFN-γ alone is not useful for cancer therapy (Zaidi and Merlino, 2011). […] It is possible that PD-L1 acts as a negative immune regulator induced by IFN-γ treatment alone. […] To determine if PD-L1 can be further targeted for this ordered therapy, we used anti-PD-L1 antibody along with 7.16.4 and IFN-γ.
# SK-BR-3 cells = test: Soft agar growth (foci formation) assay, SK-BR-3; assay type: cell-based, human; conditions: 14 days in soft agar, ImageJ
# H2N113 cells = test: Cytotoxicity assay of spleen CD8+ T cells from treated mice; assay type: in vivo, mouse; conditions: suboptimal mAb and IFN-γ (FIG. 52)
# H2N113 (IFNγR KD) cells = test: IFN-γ response of H2N113 (IFNγR KD) cells in vitro; assay type: cell-based, mouse
# H2N113 (IFNγR KD) tumors = test: Implanted H2N113 (IFNγR KD) tumor growth in MMTV-neu mice; assay type: in vivo, mouse; conditions: suboptimal 7.16.4 1.5 mg/kg; IFN-γ 5×10^5 IU/kg (FIG. 33)
# MDSC = test: In vitro MDSC migration assay (Transwell, H2N113 conditioned medium); assay type: cell-based, mouse; conditions: H2N113 treated 3 days (FIG. 9)
# MCF10A cells = test: MTT cell viability assay, MCF10A; assay type: cell-based; conditions: 8 days
# [3] = tested on: class I and class II MHC antigens in SKBR3 cells; test: MHC expression in SKBR3 cells by FACS; assay type: cell-based, human; conditions: FIG. 4
# [4] = inhibitor added during final 8 hours of two-day 4D5 and IFN-γ treatment
molecule,measurement,setting,value
CC/C(=C(\c1ccc(O)cc1)c1ccc(OCCN(C)C)cc1)c1ccccc1 [4-OH tamoxifen],cell viability,BT-474 cells,reduced viability in the cIgG-treated cells; also recorded: complemented 4D5 treatment; also recorded: did not further sensitize the cells to IFN-γ in combination with 4D5
O.O=C(O)C(F)(F)F.O=c1[nH]c2ccccc2n1C1CCN(Cc2ccc(-c3nc4cc5[nH]cnc5cc4nc3-c3ccccc3)cc2)CC1 [Akt1/2 inhibitor],snail protein level,[1]; Western blot,dose-dependent decrease in snail content
Cc1c[nH]c(-c2cnc(NCCNc3ccc(C#N)cn3)nc2-c2ccc(Cl)cc2Cl)n1 [CHIR99021],slug content under 4D5 and IFN-γ co-treatment,[1]; [4],no change in slug content
same,snail content under 4D5 and IFN-γ co-treatment,[1]; [4],dose-dependent rescue of snail
CC(C)C[C@@H](C=O)NC(=O)[C@H](CC(C)C)NC(=O)[C@H](CC(C)C)NC(=O)OCc1ccccc1 [MG-132] (Cbz-Leu-Leu-Leu-aldehyde),slug content under 4D5 and IFN-γ co-treatment,[1]; [4],no change in slug content
same,snail content under 4D5 and IFN-γ co-treatment,[1]; [4],inhibited the co-treatment-mediated reduction of snail in a dose-dependent manner
CCN(CC)CCCC(C)Nc1ccnc2cc(Cl)ccc12 (stereo not shown) [chloroquine],snail content under 4D5 and IFN-γ co-treatment,[1],increased snail content but was unable to rescue
"CS(=O)(=O)CCNCc1ccc(-c2ccc3ncnc(Nc4ccc(OCc5cccc(F)c5)c(Cl)c4)c3c2)o1 [lapatinib, Lapatinib]",Akt activity,[2],diminished Akt activity in both cell lines
same,snail protein level,[2],snail is reduced upon lapatinib treatment
same,Akt pathway activity,"[1]; 24 hours (FIG. 20A, 20B)",inactivated; also recorded: diminished Akt activity in both cell lines
same,slug protein level,[1]; Western blot,not slug
same,snail protein level,[1]; Western blot,dose-dependent reduction in snail
IFNα,anti-tumor activity of IFNα on its own,H2N113 tumors; FIG. 7,appears to have anti-tumor activity on its own
same,enhancement of mAb 7.16.4 activity to suppress tumor growth,H2N113 tumors; IFNα in combination with mAb 7.16.4 (FIG. 7),could not enhance mAb 7.16.4 activity
B1,cell viability,MDA-MB-231 cells,did respond to IFN-γ alone
same,PD-L1 expression in tumor tissues,PD-L1,dramatically induced PD-L1 expression
same,percentage of foci greater than 20 pixels,SK-BR-3 cells,52±8%
same,percentage of foci less than 20 pixels,SK-BR-3 cells,48±8%
same,effector CD8+ T cell activity against H2N113 cells,H2N113 cells,negligible effects
same,IFN-γ mediated growth suppression,"H2N113 (IFNγR KD) cells; 5 days, LDH activity (FIG. 32C)",resistant to IFN-γ mediated growth suppression
same,IFN-γ induced MHC expression,H2N113 (IFNγR KD) cells; FIG. 32B,diminished
same,tumor growth,H2N113 (IFNγR KD) tumors,no effect on its own
same,MDSC migration induced by H2N113 conditioned medium,MDSC,no appreciable effects
same,GSK3-β activation,[1]; Western blot (FIG. 21A),unable to do so
same,cell viability,MCF10A cells,minimal changes to their viability
same,tumor volumes,"H2N113 tumors; BALB/c mice, 7.16.4 1.5 mg/kg, IFN-γ 5×10^5 IU/kg (FIG. 26)",demonstrable effect
same,tumor growth,"H2N113 tumors; MMTV-neu mice, 7.16.4 1.5 mg/kg twice per week, IFN-γ 5×10^5 IU/kg three times per week (FIG. 1), 1.5 mg/kg",aggressive tumor growth; also recorded: failed to significantly inhibit tumor growth
same,class II MHC antigen expression,[3],no effect
